In patent US12685312B2, “Sulfonamide apyrase inhibitors” (Texas Crop Science, Inc., priority 2022, dated 2026):

Tested on: apyrase
Test: Screen for apyrase inhibitors (Method 1, in vitro phosphate-release absorbance assay)
Assay type: biochemical
Details: inhibitor conc at 1 mM stock, 1 hr room temperature, absorbance 630 nm; rounded average of two assay results
Method in brief: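 Phosphate-release colorimetric assay (Windsor method) in 60 mM Hepes, 3 mM MgCl2, 3 mM CaCl2, 3 mM ATP, pH 6.5, with compound or DMSO control added. Released phosphate developed with ammonium molybdate and ascorbic acid/TCA, then stopped with citrate/acetic acid.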

% Inhibition of Apyrase [%]	SMILES
57	CN(c1ccccc1)S(=O)(=O)c1cccc(NC(=O)c2ccc(Br)o2)c1 [I-722, 5-bromo-N-(3-(N-methyl-N-phenylsulfamoyl)phenyl)furan-2-carboxamide]
57	O=C(Nc1cccc(S(=O)(=O)Nc2ccc(I)cc2)c1)c1ccccn1 [I-723, N-(3-(N-(4-iodophenyl)sulfamoyl)phenyl)picolinamide]
57	O=C(Nc1cccc(S(=O)(=O)Nc2cccc(C(F)(F)F)c2)c1)c1cc2c(s1)CCCC2 [I-724, N-(3-(N-(3-(trifluoromethyl)phenyl)sulfamoyl)phenyl)-4,5,6,7-tetrahydrobenzo[b]thiophene-2-carboxamide]
57	O=C(Nc1cccc(S(=O)(=O)Nc2cccc(C(F)(F)F)c2)c1)c1ccc(Cl)nc1 [I-725, 6-chloro-N-(3-(N-(3-(trifluoromethyl)phenyl)sulfamoyl)phenyl) nicotinamide]
56	O=C(Nc1cccc(S(=O)(=O)Nc2cccc(Cl)c2)c1)c1ccc(Br)s1 [I-726, 5-bromo-N-(3-(N-(3-chlorophenyl)sulfamoyl)phenyl)thiophene-2-carboxamide]
56	COc1ccc(NS(=O)(=O)c2cccc(NC(=O)c3[nH]c(C)c(C(C)=O)c3C)c2)cc1 [I-727, 4-acetyl-N-(3-(N-(4-methoxyphenyl)sulfamoyl)phenyl)-3,5-dimethyl-1H-pyrrole-2-carboxamide]
56	O=C(Nc1cccc(S(=O)(=O)Nc2ccc(SC(F)F)cc2)c1)c1ccsc1 [I-728, N-(3-(N-(4-((difluoromethyl)thio)phenyl)sulfamoyl)phenyl) thiophene-3-carboxamide]
56	O=C(Nc1cccc(S(=O)(=O)Nc2ccccc2)c1)c1cccc(Cl)n1 [I-729, 6-chloro-N-(3-(N-phenylsulfamoyl)phenyl)picolinamide]
55	O=C(Nc1cccc(S(=O)(=O)Nc2ccccc2Cl)c1)c1ccc([N+](=O)[O-])s1 [I-730, N-(3-(N-(2-chlorophenyl)sulfamoyl)phenyl)-5-nitrothiophene-2-carboxamide]
55	Cc1cc(C(=O)Nc2cccc(S(=O)(=O)Nc3ccccc3F)c2)no1 [I-731, N-(3-(N-(2-fluorophenyl)sulfamoyl)phenyl)-5-methylisoxazole-3-carboxamide]
55	CN(c1ccccc1)S(=O)(=O)c1cccc(NC(=O)c2cnc3n(c2=O)CCS3)c1 [I-732, N-(3-(N-methyl-N-phenylsulfamoyl)phenyl)-5-oxo-2,3-dihydro-5H-thiazolo[3,2-a]pyrimidine-6-carboxamide]
54	COc1ncccc1C(=O)Nc1cccc(S(=O)(=O)Nc2ccc(Cl)cc2)c1 [I-733, N-(3-(N-(4-chlorophenyl)sulfamoyl)phenyl)-2-methoxynicotinamide]
54	O=C(Nc1cccc(S(=O)(=O)Nc2ccccc2Cl)c1)c1ccc2ccccc2n1 [I-734, N-(3-(N-(2-chlorophenyl)sulfamoyl)phenyl)quinoline-2-carboxamide]
53	COc1ccccc1NS(=O)(=O)c1cccc(NC(=O)c2ccc(=O)n(Cc3ccccc3)n2)c1 [I-735, 1-benzyl-N-(3-(N-(2-methoxyphenyl)sulfamoyl)phenyl)-6-oxo-1,6-dihydropyridazine-3-carboxamide]
53	COc1ccc(NS(=O)(=O)c2cccc(NC(=O)c3n[nH]c(=O)c4ccccc34)c2)cc1 [I-736, N-(3-(N-(4-methoxyphenyl)sulfamoyl)phenyl)-4-oxo-3,4-dihydrophthalazine-1-carboxamide]
53	O=C(Nc1cccc(S(=O)(=O)Nc2ccc(Cl)cc2)c1)c1ccc(=O)n(Cc2ccccc2)n1 [I-737, 1-benzyl-N-(3-(N-(4-chlorophenyl)sulfamoyl)phenyl)-6-oxo-1,6-dihydropyridazine-3-carboxamide]
52	Cc1ccc(Br)c(NS(=O)(=O)c2cccc(NC(=O)c3ccc(C)nc3)c2)c1 [I-738, N-(3-(N-(2-bromo-5-methylphenyl)sulfamoyl)phenyl)-6-methylnicotinamide]
52	CN(c1ccccc1)S(=O)(=O)c1cccc(NC(=O)c2cc(Cl)nc3ccccc23)c1 [I-739, 2-chloro-N-(3-(N-methyl-N-phenylsulfamoyl)phenyl)quinoline-4-carboxamide]
51	Cc1ccc(C(=O)Nc2cccc(S(=O)(=O)Nc3cccc(C(F)(F)F)c3)c2)cn1 [I-740, 6-methyl-N-(3-(N-(3-(trifluoromethyl)phenyl)sulfamoyl)phenyl)nico tinamide]
50	O=C(Nc1cccc(S(=O)(=O)Nc2cccc(Cl)c2)c1)c1ccccn1 [I-741, N-(3-(N-(3-chlorophenyl)sulfamoyl)phenyl)picolinamide]
50	COc1ccc(NS(=O)(=O)c2cccc(NC(=O)c3cc4c(s3)CCC4)c2)cc1 [I-742, N-(3-(N-(4-methoxyphenyl)sulfamoyl)phenyl)-5,6-dihydro-4H-cyclopenta[b]thiophene-2-carboxamide]

% Inhibition of Apyrase [%]	SMILES
49	CSc1ncccc1C(=O)Nc1cccc(S(=O)(=O)N(C)c2ccccc2)c1 [I-743, N-(3-(N-methyl-N-phenylsulfamoyl)phenyl)-2-(methylthio)nicotinamide]
49	Cc1cnc(C(=O)Nc2cccc(S(=O)(=O)Nc3cccc(Cl)c3)c2)cn1 [I-744, N-(3-(N-(3-chlorophenyl)sulfamoyl)phenyl)-5-methylpyrazine-2-carboxamide]
46	O=C(Nc1cccc(S(=O)(=O)Nc2ccccc2Cl)c1)c1ccccn1 [I-745, N-(3-(N-(2-chlorophenyl)sulfamoyl)phenyl)picolinamide]
45	O=C(Nc1cccc(S(=O)(=O)Nc2ccccc2Cl)c1)c1ccc(Cl)nc1 [I-746, 6-chloro-N-(3-(N-(2-chlorophenyl)sulfamoyl)phenyl)nicotinamide]
44	Cc1occc1C(=O)Nc1cccc(S(=O)(=O)Nc2cccc(C(F)(F)F)c2)c1 [I-747, 2-methyl-N-(3-(N-(3-(trifluoromethyl)phenyl)sulfamoyl)phenyl) furan-3-carboxamide]
42	Cc1cc(C(=O)Nc2cccc(S(=O)(=O)N(C)c3ccccc3)c2)on1 [I-748, 3-methyl-N-(3-(N-methyl-N-phenylsulfamoyl)phenyl)isoxazole-5-carboxamide]
41	COc1ccc(NS(=O)(=O)c2cccc(NC(=O)c3ccc(Cl)s3)c2)cc1 [I-749, 5-chloro-N-(3-(N-(4-methoxyphenyl)sulfamoyl)phenyl)thiophene-2-carboxamide]
41	Cn1nc(C(=O)Nc2cccc(S(=O)(=O)Nc3cccc(C(F)(F)F)c3)c2)c2ccccc2c1=O [I-750, 3-methyl-4-oxo-N-(3-(N-(3-(trifluoromethyl)phenyl)sulfamoyl)phenyl)-3,4-dihydrophthalazine-1-carboxamide]
41	CCOc1ccc(NS(=O)(=O)c2cccc(NC(=O)c3cccnc3)c2)cc1Br [I-751, N-(3-(N-(3-bromo-4-ethoxyphenyl)sulfamoyl)phenyl)nicotinamide]
40	O=C(Nc1cccc(S(=O)(=O)Nc2ccccc2Cl)c1)c1cnccn1 [I-752, N-(3-(N-(2-chlorophenyl)sulfamoyl)phenyl)pyrazine-2-carboxamide]
37	COc1cc(C(=O)Nc2cccc(S(=O)(=O)N(C)c3ccccc3)c2)ncn1 [I-753, 6-methoxy-N-(3-(N-methyl-N-phenylsulfamoyl)phenyl)pyrimidine-4-carboxamide]
36	CN(c1ccccc1)S(=O)(=O)c1cccc(NC(=O)c2ccc3ccccc3n2)c1 [I-754, N-(3-(N-methyl-N-phenylsulfamoyl)phenyl)quinoline-2-carboxamide]
33	CN(c1ccccc1)S(=O)(=O)c1cccc(NC(=O)c2ccc(=O)[nH]n2)c1 [I-755, N-(3-(N-methyl-N-phenylsulfamoyl)phenyl)-6-oxo-1,6-dihydropyridazine-3-carboxamide]
30	O=C(Nc1cccc(S(=O)(=O)Nc2ccccc2Cl)c1)c1cnc(Cl)c(Cl)c1 [I-756, 5,6-dichloro-N-(3-(N-(2-chlorophenyl)sulfamoyl)phenyl)nicotinamide]
29	CCOc1ncccc1C(=O)Nc1cccc(S(=O)(=O)Nc2ccccc2OC)c1 [I-757, 2-ethoxy-N-(3-(N-(2-methoxyphenyl)sulfamoyl)phenyl) nicotinamide]
28	O=C(Nc1cccc(S(=O)(=O)Nc2cccc(C(F)(F)F)c2)c1)c1cccnc1 [I-758, N-(3-(N-(3-(trifluoromethyl)phenyl)sulfamoyl)phenyl) nicotinamide]
28	O=C(Nc1cccc(S(=O)(=O)Nc2cccc(C(F)(F)F)c2)c1)c1ccco1 [I-759, N-(3-(N-(3-(trifluoromethyl)phenyl)sulfamoyl)phenyl) furan-2-carboxamide]
26	COc1ccc(C(=O)Nc2cccc(S(=O)(=O)Nc3nccs3)c2)cc1[N+](=O)[O-] [I-760, 4-methoxy-3-nitro-N-(3-(N-(thiazol-2-yl)sulfamoyl)phenyl)benzamide]
17	COc1ccccc1NS(=O)(=O)c1cccc(NC(=O)c2ccc(C)s2)c1 [I-761, N-(3-(N-(2-methoxyphenyl)sulfamoyl)phenyl)-5-methylthiophene-2-carboxamide]
16	O=C(Nc1cccc(S(=O)(=O)Nc2cccc(C(F)(F)F)c2)c1)c1ccoc1 [I-762, N-(3-(N-(3-(trifluoromethyl)phenyl)sulfamoyl)phenyl) furan-3-carboxamide]
15	CN(c1ccccc1)S(=O)(=O)c1cccc(NC(=O)c2nn(C)c(=O)c3ccccc23)c1 [I-763, 3-methyl-N-(3-(N-methyl-N-phenylsulfamoyl)phenyl)-4-oxo-3,4-dihydrophthalazine-1-carboxamide]
